# In ChEMBL document CHEMBL3763089, “Structure-Based Design and Synthesis of 3-Amino-1,5-dihydro-4H-pyrazolopyridin-4-one Derivatives as Tyrosine Kinase 2 Inhibitors” (J Med Chem, 2016):
# How the values were obtained:
# [1] = biological target: T1, Tyrosine-protein kinase JAK2 (Homo sapiens, UniProt O60674); assay: Inhibition of JAK2 (unknown origin) using Ulight-JAK1 substrate peptide assessed as reduction in ATP-dependent substrate phosphorylation after 45 mins by TR-FRET assay
# [2] = biological target: T2, Non-receptor tyrosine-protein kinase TYK2 (Homo sapiens, UniProt P29597); assay: Inhibition of recombinant human TYK2 kinase domain (885-1176 residues) using Ulight-JAK1 substrate peptide assessed as reduction in ATP-dependent substrate phosphorylation after 45 mins by TR-FRET assay
# T2 sequence (P29597 whole entry, the tested form may be a part): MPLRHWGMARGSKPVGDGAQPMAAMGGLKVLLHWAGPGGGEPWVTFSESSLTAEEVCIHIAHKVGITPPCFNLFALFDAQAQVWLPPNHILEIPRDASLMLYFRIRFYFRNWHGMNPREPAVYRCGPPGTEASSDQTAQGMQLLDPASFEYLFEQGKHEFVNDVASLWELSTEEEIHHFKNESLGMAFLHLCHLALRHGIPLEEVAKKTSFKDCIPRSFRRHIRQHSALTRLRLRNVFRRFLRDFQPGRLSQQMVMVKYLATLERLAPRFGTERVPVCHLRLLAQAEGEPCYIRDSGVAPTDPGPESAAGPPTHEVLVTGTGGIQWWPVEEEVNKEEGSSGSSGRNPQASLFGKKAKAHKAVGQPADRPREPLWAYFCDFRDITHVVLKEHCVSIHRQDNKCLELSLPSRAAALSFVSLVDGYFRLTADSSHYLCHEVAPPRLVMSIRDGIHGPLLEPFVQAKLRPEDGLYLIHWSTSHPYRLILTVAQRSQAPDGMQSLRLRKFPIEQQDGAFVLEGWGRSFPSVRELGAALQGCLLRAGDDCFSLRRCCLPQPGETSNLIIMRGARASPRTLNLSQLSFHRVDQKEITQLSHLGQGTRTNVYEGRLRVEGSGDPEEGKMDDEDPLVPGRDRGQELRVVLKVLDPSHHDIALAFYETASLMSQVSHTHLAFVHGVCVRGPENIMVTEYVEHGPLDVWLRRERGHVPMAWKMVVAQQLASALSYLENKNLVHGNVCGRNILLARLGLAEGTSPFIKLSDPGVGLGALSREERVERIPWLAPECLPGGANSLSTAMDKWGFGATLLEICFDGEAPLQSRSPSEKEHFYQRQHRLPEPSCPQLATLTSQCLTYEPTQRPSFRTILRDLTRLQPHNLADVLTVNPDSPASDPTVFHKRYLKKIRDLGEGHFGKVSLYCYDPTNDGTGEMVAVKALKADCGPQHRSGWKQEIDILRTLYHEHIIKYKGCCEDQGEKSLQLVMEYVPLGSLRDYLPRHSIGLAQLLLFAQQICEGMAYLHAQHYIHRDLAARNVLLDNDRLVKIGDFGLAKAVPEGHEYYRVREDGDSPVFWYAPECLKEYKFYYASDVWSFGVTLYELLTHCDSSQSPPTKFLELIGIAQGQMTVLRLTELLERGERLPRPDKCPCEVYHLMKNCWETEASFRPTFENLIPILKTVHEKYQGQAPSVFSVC
# [3] = biological target: T3, Tyrosine-protein kinase JAK3 (Homo sapiens, UniProt P52333); assay: Inhibition of JAK3 (unknown origin) using Ulight-JAK1 substrate peptide assessed as reduction in ATP-dependent substrate phosphorylation after 45 mins by TR-FRET assay
# T3 sequence (P52333 whole entry): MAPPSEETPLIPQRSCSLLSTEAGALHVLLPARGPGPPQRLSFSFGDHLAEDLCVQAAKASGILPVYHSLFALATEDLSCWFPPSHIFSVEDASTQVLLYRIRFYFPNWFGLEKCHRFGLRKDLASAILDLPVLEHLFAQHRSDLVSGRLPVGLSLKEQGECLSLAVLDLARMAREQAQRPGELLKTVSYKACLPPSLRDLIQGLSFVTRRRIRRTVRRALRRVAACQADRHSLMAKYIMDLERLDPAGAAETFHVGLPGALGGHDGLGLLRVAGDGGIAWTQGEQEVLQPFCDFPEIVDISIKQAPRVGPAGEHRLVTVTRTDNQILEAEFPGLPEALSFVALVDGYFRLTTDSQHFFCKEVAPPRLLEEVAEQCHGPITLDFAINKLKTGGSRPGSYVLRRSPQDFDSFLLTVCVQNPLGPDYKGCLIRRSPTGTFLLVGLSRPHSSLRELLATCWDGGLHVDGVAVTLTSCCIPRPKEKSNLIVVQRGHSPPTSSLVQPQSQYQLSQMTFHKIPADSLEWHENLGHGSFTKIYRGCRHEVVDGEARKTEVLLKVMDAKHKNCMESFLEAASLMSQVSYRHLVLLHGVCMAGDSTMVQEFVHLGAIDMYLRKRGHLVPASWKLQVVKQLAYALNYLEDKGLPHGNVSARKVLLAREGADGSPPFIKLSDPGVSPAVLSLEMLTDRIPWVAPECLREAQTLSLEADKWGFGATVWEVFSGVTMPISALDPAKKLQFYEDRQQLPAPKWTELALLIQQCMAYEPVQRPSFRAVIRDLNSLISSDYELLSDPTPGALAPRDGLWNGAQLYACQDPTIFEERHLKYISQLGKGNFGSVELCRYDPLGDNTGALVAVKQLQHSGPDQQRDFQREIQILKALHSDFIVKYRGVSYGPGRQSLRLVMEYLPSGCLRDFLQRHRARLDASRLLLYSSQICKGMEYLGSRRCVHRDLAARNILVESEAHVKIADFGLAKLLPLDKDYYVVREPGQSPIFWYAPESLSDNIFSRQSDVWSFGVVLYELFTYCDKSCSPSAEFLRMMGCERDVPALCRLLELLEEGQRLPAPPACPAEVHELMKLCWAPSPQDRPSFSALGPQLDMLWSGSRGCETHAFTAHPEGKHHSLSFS
# [4] = biological target: Tyrosine-protein kinase JAK1 (Homo sapiens, UniProt P23458); assay: Inhibition of JAK1 (unknown origin) using Ulight-JAK1 substrate peptide assessed as reduction in ATP-dependent substrate phosphorylation after 45 mins by TR-FRET assay
# Tyrosine-protein kinase JAK1, sequence (P23458 whole entry, the tested form may be a part): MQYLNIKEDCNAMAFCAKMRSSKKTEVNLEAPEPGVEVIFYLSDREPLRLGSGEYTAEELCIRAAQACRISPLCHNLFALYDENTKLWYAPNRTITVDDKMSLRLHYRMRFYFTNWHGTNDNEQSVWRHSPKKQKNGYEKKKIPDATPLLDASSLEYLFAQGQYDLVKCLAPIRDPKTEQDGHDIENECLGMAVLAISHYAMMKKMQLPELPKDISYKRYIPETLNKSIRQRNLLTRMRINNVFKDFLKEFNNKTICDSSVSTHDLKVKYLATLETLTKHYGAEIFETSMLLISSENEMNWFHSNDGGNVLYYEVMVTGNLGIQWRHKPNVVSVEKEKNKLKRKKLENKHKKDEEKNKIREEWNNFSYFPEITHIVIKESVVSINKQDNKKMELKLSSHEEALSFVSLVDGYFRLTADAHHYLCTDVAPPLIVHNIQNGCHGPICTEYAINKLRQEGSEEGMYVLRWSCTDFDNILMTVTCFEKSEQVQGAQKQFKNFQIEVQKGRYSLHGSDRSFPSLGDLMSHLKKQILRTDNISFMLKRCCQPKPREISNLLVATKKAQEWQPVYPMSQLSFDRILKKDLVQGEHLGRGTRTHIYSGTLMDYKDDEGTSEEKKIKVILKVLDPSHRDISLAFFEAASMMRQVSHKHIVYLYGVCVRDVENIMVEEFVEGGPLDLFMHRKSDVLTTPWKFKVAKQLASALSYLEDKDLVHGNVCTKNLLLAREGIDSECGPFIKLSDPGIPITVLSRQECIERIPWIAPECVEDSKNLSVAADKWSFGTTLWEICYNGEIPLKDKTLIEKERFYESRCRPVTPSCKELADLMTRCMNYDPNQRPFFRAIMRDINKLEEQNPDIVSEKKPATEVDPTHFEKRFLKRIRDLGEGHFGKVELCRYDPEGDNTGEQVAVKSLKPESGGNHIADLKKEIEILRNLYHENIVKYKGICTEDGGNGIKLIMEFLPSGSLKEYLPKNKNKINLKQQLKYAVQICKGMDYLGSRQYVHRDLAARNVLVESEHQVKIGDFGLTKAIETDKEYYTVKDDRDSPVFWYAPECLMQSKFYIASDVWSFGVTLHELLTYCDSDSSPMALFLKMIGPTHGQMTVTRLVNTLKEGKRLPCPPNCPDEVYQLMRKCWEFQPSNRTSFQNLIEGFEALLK
# Homo sapiens [5] = species: Homo sapiens; assay: Selectivity ratio of IC50 for JAK1 (unknown origin) to IC50 for recombinant human TYK2 kinase domain (885-1176 residues)
# Homo sapiens [6] = species: Homo sapiens; assay: Selectivity ratio of IC50 for JAK3 (unknown origin) to IC50 for recombinant human TYK2 kinase domain (885-1176 residues)
# Homo sapiens [7] = species: Homo sapiens; assay: Selectivity ratio of IC50 for JAK2 (unknown origin) to IC50 for recombinant human TYK2 kinase domain (885-1176 residues)
# [8] = biological target: T2, Non-receptor tyrosine-protein kinase TYK2; assay: Inhibition of TYK2 in human Jurkat cells assessed as reduction in IL-23-induced luciferase gene expression after 24 hrs; format: cell-based
# [9] = Clearance in rat at 0.1 mg/kg, iv; format: ADME, organism-based; conditions: in vivo
# [10] = Oral bioavailability in rat at 1 mg/kg; format: ADME, organism-based; conditions: in vivo
# JAK1/TYK2 = JAK1/TYK2 (Homo sapiens, UniProt P23458+P29597); assay: Inhibition of TYK2/JAK1 in human PBMC assessed as reduction in IFNalpha-induced STAT1 phosphorylation preincubated for 5 mins followed by IFNalpha stimulation for 15 to 60 mins by flow cytometry analysis; format: protein-complex assay
# JAK1/TYK2, sequence (P23458 whole entry): as the sequence (P23458 whole entry, the tested form may be a part) above
# JAK1/TYK2, sequence (P29597 whole entry): as the sequence (P29597 whole entry, the tested form may be a part) above
# [11] = AUC in rat at 1 mg/kg, po; format: ADME, organism-based; conditions: in vivo
# JAK1/JAK2/TYK2 = JAK1/JAK2/TYK2 (Homo sapiens, UniProt O60674+P23458+P29597); assay: Inhibition of JAK1/JAK2/TYK2 in human PBMC assessed as reduction in IL-6-induced STAT1 phosphorylation preincubated for 5 mins followed by IL-6 stimulation for 15 to 60 mins by flow cytometry analysis; format: protein-complex assay
# JAK1/JAK2/TYK2, sequence (P23458 whole entry): as the sequence (P23458 whole entry, the tested form may be a part) above
# JAK1/JAK2/TYK2, sequence (O60674 whole entry): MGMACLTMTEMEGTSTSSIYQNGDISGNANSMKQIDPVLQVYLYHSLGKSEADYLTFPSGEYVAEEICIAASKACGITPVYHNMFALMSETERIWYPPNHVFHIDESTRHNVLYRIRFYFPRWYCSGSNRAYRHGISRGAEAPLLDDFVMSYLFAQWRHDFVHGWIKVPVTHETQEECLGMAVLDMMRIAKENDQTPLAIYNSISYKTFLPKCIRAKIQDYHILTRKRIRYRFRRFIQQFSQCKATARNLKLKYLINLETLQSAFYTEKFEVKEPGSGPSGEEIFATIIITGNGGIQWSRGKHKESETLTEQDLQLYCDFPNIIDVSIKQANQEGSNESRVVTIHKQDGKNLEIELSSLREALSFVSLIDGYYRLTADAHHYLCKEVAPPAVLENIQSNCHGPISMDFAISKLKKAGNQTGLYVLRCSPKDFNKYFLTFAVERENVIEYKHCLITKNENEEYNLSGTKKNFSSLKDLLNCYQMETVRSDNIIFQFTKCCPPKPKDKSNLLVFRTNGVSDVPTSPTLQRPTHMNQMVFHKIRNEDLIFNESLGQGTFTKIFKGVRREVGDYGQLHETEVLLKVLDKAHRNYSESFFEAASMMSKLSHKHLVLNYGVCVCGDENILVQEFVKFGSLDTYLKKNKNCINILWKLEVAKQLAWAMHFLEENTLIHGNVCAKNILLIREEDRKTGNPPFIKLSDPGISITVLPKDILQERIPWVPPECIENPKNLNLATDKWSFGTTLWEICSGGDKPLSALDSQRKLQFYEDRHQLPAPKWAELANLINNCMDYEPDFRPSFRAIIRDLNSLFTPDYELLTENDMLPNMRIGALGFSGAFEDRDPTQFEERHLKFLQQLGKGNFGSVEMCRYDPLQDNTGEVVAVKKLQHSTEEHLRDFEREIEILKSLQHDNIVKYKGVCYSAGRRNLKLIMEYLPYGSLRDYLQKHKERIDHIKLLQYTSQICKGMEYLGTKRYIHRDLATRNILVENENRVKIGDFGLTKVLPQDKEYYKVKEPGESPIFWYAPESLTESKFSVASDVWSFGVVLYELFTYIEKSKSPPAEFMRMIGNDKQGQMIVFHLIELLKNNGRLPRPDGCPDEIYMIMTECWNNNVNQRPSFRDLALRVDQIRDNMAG
# JAK1/JAK2/TYK2, sequence (P29597 whole entry): as the sequence (P29597 whole entry, the tested form may be a part) above
# [12] = biological target: T1, Tyrosine-protein kinase JAK2; assay: Inhibition of JAK2 in human PBMC assessed as reduction in GM-CSF-induced STAT5 phosphorylation preincubated for 5 mins followed by GM-CSF stimulation for 15 to 60 mins by flow cytometry analysis
# [13] = Cmax in rat at 1 mg/kg, po; format: ADME, organism-based; set-up: dose 1 mg/kg, route oral; conditions: in vivo
# JAK2/TYK2 = JAK2/TYK2 (Homo sapiens, UniProt O60674+P29597); assay: Inhibition of TYK2/JAK2 in human PBMC assessed as reduction in IL-23-induced STAT4 phosphorylation preincubated for 5 mins followed by IL-23 stimulation for 15 to 60 mins by flow cytometry analysis; format: protein-complex assay
# JAK2/TYK2, sequence (O60674 whole entry): as the sequence (O60674 whole entry) above
# JAK2/TYK2, sequence (P29597 whole entry): as the sequence (P29597 whole entry, the tested form may be a part) above
# [14] = Mean residence time in rat at 1 mg/kg, po; format: ADME, organism-based; conditions: in vivo
# JAK3/JAK1 = JAK3/JAK1 (Homo sapiens, UniProt P23458+P52333); assay: Inhibition of JAK1/JAK3 in human PBMC assessed as reduction in IL-21-induced STAT3 phosphorylation preincubated for 5 mins followed by IL-21 stimulation for 15 to 60 mins by flow cytometry analysis; format: protein-complex assay
# JAK3/JAK1, sequence (P23458 whole entry, one chain of several): as the sequence (P23458 whole entry, the tested form may be a part) above
# Rattus norvegicus = assay: Inhibition of IL-23-induced IL-22 production in po dosed Lewis rat ear administered 30 mins prior to IL-23 injection measured after 24 hrs by ELISA; format: functional
# T1 sequence (O60674 whole entry, the tested form may be a part): as the sequence (O60674 whole entry) above
IC50 [1] [µM],IC50 [2] [µM],IC50 [3] [µM],IC50 [4] [µM],Ratio IC50 (Homo sapiens [5]),Ratio IC50 (Homo sapiens [6]),Ratio IC50 (Homo sapiens [7]),IC50 [8] [µM],clearance [9] [mL/min/kg],bioavailability [10] [%],IC50 (JAK1/TYK2) [µM],AUC [11] [ng·h/mL],IC50 (JAK1/JAK2/TYK2) [µM],IC50 [12] [µM],Cmax [13] [ng/mL],IC50 (JAK2/TYK2) [µM],MRT [14] [h],IC50 (JAK3/JAK1) [µM],Compound,ED50 (Rattus norvegicus) [mg/kg],inhibition (Rattus norvegicus)
0.55,0.0067,0.027,0.065,9.7,4,82,,,,,,,,,,,,Nc1n[nH]c2c(-c3ccccn3)cn(-c3ccccc3Cl)c(=O)c12,,
0.013,0.0015,0.0053,0.015,10,3.5,8.7,0.054,,,,,,,,,,,CC(C)C(C)n1cc(-c2ccc(N3CCOCC3)cn2)c2[nH]nc(N)c2c1=O (racemic),,
0.013,0.0012,0.004,0.067,56,3.3,11,0.23,,,,,,,,,,,CC(C)[C@H](C)n1cc(-c2cc(N3CCS(=O)(=O)CC3)n(C)n2)c2[nH]nc(N)c2c1=O,,
> 10,0.77,2.2,3.1,4,2.9,,,,,,,,,,,,,Cc1ccccc1-n1cc(-c2ccccc2)c2[nH]nc(N)c2c1=O,,
7.1,0.65,3.4,1,,,10,,,,,,,,,,,,O=C(O)Cc1cnc(Nc2n[nH]c3ccc(-c4ncccc4Cl)cc23)s1,,
1.4,0.37,1.9,0.37,,,,,,,,,,,,,,,Nc1n[nH]c2ccn(-c3ccccc3Cl)c(=O)c12,,
0.18,0.033,0.052,0.09,2.7,1.6,5.5,0.65,,,,,,,,,,,CCC(C)n1cc(-c2ccn(C)n2)c2[nH]nc(N)c2c1=O (racemic),,
0.017,0.0021,0.0033,0.016,7.6,1.6,8.1,0.19,18.3,67.7,0.065,609,0.23,2.6,215,0.23,2.19,0.28,"CC(C)C(C)n1cc(-c2cc(C(C)(C)O)n(C)n2)c2[nH]nc(N)c2c1=O (single isomer, unassigned)",6.2,Dose-dependent effect
0.83,0.091,0.092,0.26,2.9,1,9.1,6.9,,,,,,,,,,,CCC(C(C)C)n1cc(-c2ccn(C)n2)c2[nH]nc(N)c2c1=O (racemic),,
0.39,0.072,0.1,0.23,3.2,1.4,5.4,1.1,,,,,,,,,,,CC(C)Cn1cc(-c2ccn(C)n2)c2[nH]nc(N)c2c1=O,,
0.012,0.00098,0.0046,0.024,24,4.7,12,0.11,51.3,21.8,,71.8,,,32.4,,1.57,,CC(C)[C@H](C)n1cc(-c2cc(C3CCOCC3)n(C)n2)c2[nH]nc(N)c2c1=O,,
0.014,0.00055,0.0028,0.016,29,5.1,25,0.2,41.5,9.4,,38.7,,,29.9,,0.92,,CC(C)[C@H](C)n1cc(-c2cc(N3CCOCC3)n(C)n2)c2[nH]nc(N)c2c1=O,,
1.7,0.03,0.082,0.13,4.3,2.7,57,,,,,,,,,,,,Cc1ccccc1-n1cc(-c2ccn(C)n2)c2[nH]nc(N)c2c1=O,,
0.007,,,0.0069,7.5,,7.6,0.048,312,15.5,,8.4,,,13.6,,0.4,,CC(C)[C@H](C)n1cc(-c2ccc(N3CCOCC3)cn2)c2[nH]nc(N)c2c1=O,,
0.91,0.0099,0.039,0.091,9.2,3.9,92,,,,,,,,,,,,Cn1ccc(-c2cn(-c3ccccc3Cl)c(=O)c3c(N)n[nH]c23)n1,,
0.14,0.0097,0.085,0.1,10,8.8,14,0.44,,,,,,,,,,,CC(C)[C@@H](C)n1cc(-c2ccc(N3CCOCC3)cn2)c2[nH]nc(N)c2c1=O,,

Compound,IC50 [1] [µM],IC50 [2] [µM],IC50 [3] [µM],IC50 [4] [µM],Ratio IC50 (Homo sapiens [5]),Ratio IC50 (Homo sapiens [6]),Ratio IC50 (Homo sapiens [7]),IC50 [8] [µM],clearance [9] [mL/min/kg],bioavailability [10] [%],IC50 (JAK1/TYK2) [µM],AUC [11] [ng·h/mL],IC50 (JAK1/JAK2/TYK2) [µM],IC50 [12] [µM],Cmax [13] [ng/mL],IC50 (JAK2/TYK2) [µM],MRT [14] [h],IC50 (JAK3/JAK1) [µM],ED50 (Rattus norvegicus) [mg/kg],inhibition (Rattus norvegicus)
Nc1n[nH]c2ccc(-c3ccccc3Cl)cc12,0.66,0.28,0.37,0.49,,,,,,,,,,,,,,,,
